Measured values from article PMC12406203 (Journal of Medicinal Chemistry, 2025).
“And” between values parts separate entries of the source, which are not always exact repeats. Identical values can stand only once.

Legend:
hAChE [1] = molecular target: hAChE (Homo sapiens, UniProt P22303)
hAChE [2] = system: hAChE
human p38α MAPK = human p38α MAPK (Homo sapiens, UniProt Q16539); assay: biochemical
Procedure: The inhibitory activities against human p38α MAPK were evaluated using the commercially available ADP-Glo Kinase Assay (Promega, Inc., USA).
For the reference sample, 1% [v/v] DMSO replaced the inhibitor solution. […] The enzyme reaction was started with the addition of the enzyme solution. The DMSO concentration in the test solution was maintained at 1% [v/v]. The plate was incubated for 60 min. Then 5 μL of ADP-Glo reagent was added, followed by a 40 min incubation at room temperature. […] All incubations were performed at room temperature. The RA and IC50 values were calculated as described above (ChEs inhibitory potency).

[3] = system: ABL1(T315I)-phosphorylated
PBMCs = assay: Cytokine release from PHA-stimulated PBMCs; format: cell-based, human
Procedure: Human PBMCs from healthy donors were isolated from heparinized blood by density gradient centrifugation with Ficoll-Paque. The isolated cells were washed twice with PBS, resuspended in RPMI 1640 medium (Sigma-Aldrich, St. Louis, MO, USA) supplemented with 10% heat-inactivated fetal bovine serum (Gibco), 2 mM L-glutamine (Sigma-Aldrich), 100 U/mL penicillin (Sigma-Aldrich), and 100 μg/mL streptomycin (Sigma-Aldrich), and used in the assays.
Peripheral blood mononuclear cells were seeded (500,000 cells/well) in 24-well plates in 500 μL of growth medium and treated with compounds 94, 95, and neflamapimod (1, 2.5, and 5 μM) in the presence or absence of PHA (1 μg/mL) or the corresponding vehicle (0.1% DMSO). Cell-free supernatants were collected after 18 h of incubation (37 °C, 5% CO2) and stored at −80 °C until tested. Cytokine production was determined with BD Cytometric Bead Array human inflammatory cytokines kit (BD Bioscience) on an Attune NxT flow cytometer (Thermo Fisher Scientific, Waltham, MA, USA). Standard curves were generated using recombinant cytokines contained in the kit. The data were analyzed using the FlowJo (Tree Star, Inc., Ashland, OR, USA) and Prism (GraphPad Prism 6.0, GraphPad Software) software.

[4] = Pharmacokinetic study in mice
Procedure: In this study, male CD-1 mice weighing 27–34 g housed in conditions of constant temperature with a 12:12 h light-dark cycle with free access to food and water were used. Both tested and reference compounds were suspended in 1% Tween in water for injection (Polpharma, Poland) and administered intraperitoneally (i.p.). The mice were sacrificed by decapitation under isoflurane anesthesia at different time points following compound administration. Brains were harvested at the same time points. Blood was allowed to clot at room temperature for 20 min, and serum was separated by centrifugation at 8 000g (Eppendorf MiniSpin centrifuge, Germany) for 10 min. All samples were stored at −80 °C until analysis.
The analytical workflow employed a Sciex QTRAP 4500 triple quadrupole mass spectrometer interfaced with an Exion LC AC HPLC system (Danaher Corporation, USA). Chromatographic separation was achieved on an XBridge C18 column (3 × 50 mm, 5 μm; Waters, USA), utilizing a mobile phase composed of acetonitrile and water both containing 0.1% formic acid. The column temperature was maintained at 40 °C, and a gradient elution protocol (Table S10) was implemented to ensure optimal analyte resolution and retention times. Mass spectrometric detection was conducted in unit resolution mode, with ion transitions specified in Table S11. […] Valsartan served as the internal standard and was monitored at m/z 436 → 207 (collision energy = 42 eV). Positive electrospray ionization (ESI+) was employed to enhance detection sensitivity. Ion path parameters (Table S11) were optimized via direct infusion of analyte solutions (7 μL/min) using a syringe pump. The optimized source conditions included an ion spray voltage of 5500 V, a source temperature of 450 °C, curtain gas pressure at 20 psi, and medium collision gas pressure. […] No significant matrix effects or stability concerns were observed during routine sample analysis. Data acquisition and processing were carried out using Analyst software version 1.7.
Serial dilutions were performed to generate working solutions ranging from 0.01 to 20 μg/mL, corresponding to final calibration concentrations of 0.001–2 μg/mL. For calibration curve construction, 5 μL of each working solution was spiked into 45 μL of the relevant biological matrix (serum or brain homogenate) and vortexed for 10 s. Sample preparation involved protein precipitation, in a 1:3 (v/v) ratio, using acetonitrile containing 0.1% formic acid and the internal standard. The mixtures were agitated for 10 min using an IKA Vibrax VXR shaker (Germany), followed by centrifugation at 8000 × g for 5 min (Eppendorf miniSpin, Germany). The resulting supernatants were transferred to chromatographic vials for analysis.
Brain tissues were homogenized in distilled water at a 1:4 (w/v) ratio using an ULTRA-TURRAX T10 basic homogenizer (IKA, Germany). Aliquots of brain homogenate or serum (50 μL) were subjected to protein precipitation in a 1:3 (v/v) ratio with acetonitrile containing 0.1% formic acid and the internal standard. The mixtures were agitated for 10 min using an IKA Vibrax VXR shaker (Germany), followed by centrifugation at 8000 × g for 5 min (Eppendorf miniSpin, Germany). The resulting supernatants were directly transferred to chromatographic vials for analysis. In cases where analyte concentrations in serum exceeded 20 μg/mL, samples were diluted with blank matrix prior to the deproteinization step. The autosampler was maintained at 15 °C, and a 1 μL aliquot was injected onto the analytical column.
Pharmacokinetic parameters were estimated using the noncompartmental analysis (NCA). The maximum concentration (C max) and the time to reach maximum concentration (t max) in serum and brain were obtained directly from the concentration versus time data.

[5] = male, CD-1, mouse, brain, ip, 10 mg/kg
[6] = male, CD-1, mouse, serum, ip, 10 mg/kg

Chain of hAChE (Homo sapiens, UniProt P22303) (P22303 32-614): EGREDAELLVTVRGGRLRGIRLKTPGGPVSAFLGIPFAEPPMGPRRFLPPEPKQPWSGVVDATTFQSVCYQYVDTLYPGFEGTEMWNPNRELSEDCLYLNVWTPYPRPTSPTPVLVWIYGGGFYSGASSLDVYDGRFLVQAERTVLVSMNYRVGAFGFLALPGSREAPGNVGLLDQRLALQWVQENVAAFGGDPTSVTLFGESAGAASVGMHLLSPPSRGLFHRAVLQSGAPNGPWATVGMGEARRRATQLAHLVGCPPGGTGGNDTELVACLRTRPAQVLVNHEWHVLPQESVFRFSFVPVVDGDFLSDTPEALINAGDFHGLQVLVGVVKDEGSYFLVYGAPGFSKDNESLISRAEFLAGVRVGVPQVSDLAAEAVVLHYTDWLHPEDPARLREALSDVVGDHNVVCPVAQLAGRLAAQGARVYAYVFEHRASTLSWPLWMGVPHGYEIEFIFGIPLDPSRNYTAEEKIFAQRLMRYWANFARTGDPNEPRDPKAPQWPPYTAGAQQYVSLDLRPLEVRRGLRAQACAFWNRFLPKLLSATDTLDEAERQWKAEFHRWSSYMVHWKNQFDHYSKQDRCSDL
Chain of human p38α MAPK (Q16539 whole entry): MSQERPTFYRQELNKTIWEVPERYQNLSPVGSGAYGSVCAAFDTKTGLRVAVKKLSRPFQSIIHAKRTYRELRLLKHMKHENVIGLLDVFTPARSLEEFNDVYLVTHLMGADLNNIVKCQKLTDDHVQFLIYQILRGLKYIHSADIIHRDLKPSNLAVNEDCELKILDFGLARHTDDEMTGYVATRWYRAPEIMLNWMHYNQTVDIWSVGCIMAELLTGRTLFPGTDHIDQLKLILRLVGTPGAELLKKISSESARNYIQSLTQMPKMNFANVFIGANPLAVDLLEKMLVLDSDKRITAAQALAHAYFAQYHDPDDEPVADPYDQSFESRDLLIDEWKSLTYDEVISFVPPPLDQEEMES

## CC(C)Cn1ncc2cc(Cc3ccc(F)cc3F)c(C(=O)NCCN(C)C)cc21 [Compound 94, 5-(2,4-Difluorobenzyl)-N-(2-(dimethylamino)ethyl)-1-isobutyl-1H-indazole-6-carboxamide]
VEGFR2
  RA @ 1000nM: 100%
  RA @ 10000nM: 100%
ADCK3
  RA @ 1000nM: 100%
  RA @ 10000nM: 100%
TIE2
  RA @ 1000nM: 100%
  RA @ 10000nM: 100%
hAChE [1]; at a concentration of 100 μM
  AChE inhibition: did not inhibit AChE
hAChE [1]; residual activity at 100 μM, mean ± SD, one experiment in triplicate
  hAChE RA at 100 μM: 69.0% and 69 ± 4%
PCTK1
  RA @ 1000nM: 96%
  RA @ 10000nM: 92%
PRKCE
  RA @ 1000nM: 80%
  RA @ 10000nM: 80%
hAChE [2]
  RA at 100 µM: 69 ± 4%
p38α
  RA @ 1000nM: 2.3%
  RA @ 10000nM: 0.4%
CDK7
  RA @ 1000nM: 79%
  RA @ 10000nM: 86%
Human p38α MAPK; p38α MAPK IC50, IC50 expressed as concentration in ng/mL
  IC50: 0.376 µM
Human p38α MAPK; p38α MAPK IC50 ± SEM, two independent experiments, each in triplicate
  IC50: 0.377 ± 0.123 µM
RIOK2
  RA @ 1000nM: 85%
  RA @ 10000nM: 92%
TRKA
  RA @ 1000nM: 98%
  RA @ 10000nM: 94%
ALK
  RA @ 1000nM: 93%
  RA @ 10000nM: 83%
RET
  RA @ 1000nM: 100%
  RA @ 10000nM: 100%
FLT3
  RA @ 1000nM: 100%
  RA @ 10000nM: 90%
CDK11
  RA @ 1000nM: 100%
  RA @ 10000nM: 89%
FAK
  RA @ 1000nM: 96%
  RA @ 10000nM: 89%
[3]
  RA @ 1000nM: 93%
  RA @ 10000nM: 90%
MEK2
  RA @ 1000nM: 86%
  RA @ 10000nM: 80%
BTK
  RA @ 1000nM: 100%
  RA @ 10000nM: 100%
IGF1R
  RA @ 1000nM: 94%
  RA @ 10000nM: 84%
p38α MAPK
  IC50: 377 nM and 156 ng/mL
MKNK2
  RA @ 1000nM: 76%
  RA @ 10000nM: 80%
BRAF(V600E)
  RA @ 1000nM: 100%
  RA @ 10000nM: 100%
ACVR1B
  RA @ 1000nM: 100%
  RA @ 10000nM: 100%
PBMCs
  production of IL-12: increased, albeit at a low level
PBMCs; 1, 2.5, and 5 μM, 18 h
  production of pro-inflammatory cytokines IL-8, IL-1β, IL-6, IL-10, and TNF-α: significantly inhibited
[4]; 10 mg/kg i.p., mice
  elimination half-life in brain compared to serum: over 2 fold
[4]; brain, 10 mg/kg i.p., mice
  AUC0‑∞: 50863.30 ng·min/mL(g)
  AUC0–t: 48459.19 ng·min/mL(g)
  t0.5λz: 210.94 min
[4]; [5]
  Cmax: 658 ng/g
  MRT: 102 min
  Tmax: 15 min
  k el: 5.5e-05 s⁻¹
[4]; male, CD-1, mouse, brain/serum, ip, 10 mg/kg
  Kp: 1.58
[4]; [6]
  AUC: 536 ng·h/mL
  AUC(0-t): 532 ng·h/mL
  CL/F: 310 mL/min/kg
  Cmax: 946 ng/mL
  MRT: 53.8 min
  Tmax: 5 min
  Vd/F: 46 L/kg
  k el: 0.000112 s⁻¹
[4]; serum, 10 mg/kg i.p., mice
  AUC0–t ratio compound 94 to compound 95: 0.53
  t0.5λz: 102.50 min
PAK4
  RA @ 1000nM: 97%
  RA @ 10000nM: 96%
LKB1
  RA @ 1000nM: 100%
  RA @ 10000nM: 96%
JNK1
  RA @ 1000nM: 77%
  RA @ 10000nM: 41%
AKT2
  RA @ 1000nM: 89%
  RA @ 10000nM: 76%
MEK1
  RA @ 1000nM: 98%
  RA @ 10000nM: 74%
PKACα
  RA @ 1000nM: 100%
  RA @ 10000nM: 96%
BBB-PAMPA, pH 7.4, n = 2 novel compounds, n = 3 reference drugs
  Pe ± SEM: 10.4 ± 0.01 ×10–6 cm/s
Predicted BBB permeation from Pe
  CNS (+/–): CNS+ (CNS+ indicates high predicted BBB permeation [Pe (×10–6 cm/s) > 4.0])
EGFR(L858R)
  RA @ 1000nM: 100%
  RA @ 10000nM: 66%
MAP3K4
  RA @ 1000nM: 49%
  RA @ 10000nM: 100%
INSR
  RA @ 1000nM: 81%
  RA @ 10000nM: 90%
p38β
  RA @ 1000nM: 72%
  RA @ 10000nM: 15%
MAPKAPK2
  RA @ 1000nM: 100%
  RA @ 10000nM: 84%
